Measurements: patent US8309581B2, “Benzimidazole derivatives” (Hoffmann-La Roche Inc., priority 2009, dated 2012)

molecular target: T1, FXR ligand binding domain (Homo sapiens, UniProt Q96RI1); assay: Radioligand Binding Assay (scintillation proximity radioligand displacement); settings: GST-FXR LBD fusion protein on SPA beads, test compound 6×10^−9 M to 2.5×10^−5 M
T1 construct: made in house; host or cells: E. coli BL21 (pLysS)
T1 sequence (Q96RI1 193-472 isoform Q96RI1-2): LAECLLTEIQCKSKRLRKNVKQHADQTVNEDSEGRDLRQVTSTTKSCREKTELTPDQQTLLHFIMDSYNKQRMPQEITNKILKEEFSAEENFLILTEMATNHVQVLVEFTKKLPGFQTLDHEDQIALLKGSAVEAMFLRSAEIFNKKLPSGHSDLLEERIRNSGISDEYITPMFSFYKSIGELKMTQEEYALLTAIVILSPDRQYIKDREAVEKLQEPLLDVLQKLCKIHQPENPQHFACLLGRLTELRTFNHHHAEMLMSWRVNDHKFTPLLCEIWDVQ
Experimental: The following tests were carried out in order to determine the activity of the compounds of formula (I). Background information on the binding assay can be found in: Nichols J S et al. “Development of a scintillation proximity assay for peroxisome proliferator-activated receptor gamma ligand binding domain”, (1998) Anal. Biochem. 257: 112-119.
Bacterial and mammalian expression vectors were constructed to produce glutathione-s-transferase (GST) and Gal4 DNA binding domain (GAL) proteins fused to the ligand binding domain (LBD) of human FXR (aa 193-473). To accomplish this, the portions of the sequences encoding the FXR LBD were amplified by polymerase chain reaction (PCR) from a full-length clone by PCR and then subcloned into the plasmid vectors. The final clone was verified by DNA sequence analysis.
The induction, expression, and subsequent purification of GST-LBD fusion protein was performed in E. coli strain BL21 (pLysS) cells by standard methods (Current Protocols in Molecular Biology, Wiley Press, ed. Ausubel et al.).
Radioligand Binding Assay
Binding of test substances to the FXR ligand binding domain was assessed in a radioligand displacement assay. The assay was performed in a buffer consisting of 50 mM Hepes, pH 7.4, 10 mM NaCl, 5 mM MgCl2, 0.01% CHAPS. For each reaction well in a 96-well plate, 40 nM of GST-FXR LBD fusion protein was bound to […] glutathione ytrium silicate SPA beads (PharmaciaAmersham) in a final volume of […] by shaking. A radioligand (e.g., 20 nM of 2,N-dicyclohexyl-2-[2-(2,4 dimethoxy-phenyl)-benzoimidazol-1-yl]-acetamide) and test compounds were added, and scintillation proximity counting was performed. All binding assays were performed in 96-well plates and the amount of bound ligand was measured on a Packard TopCount using OptiPlates (Packard). Dose response curves were performed within a range of test compound concentrations from 6×10^−9 M to 2.5×10^−5 M and IC50 values were calculated.

Row | SMILES | IC50
1 | O=C(O)Cc1ccc(COc2cc(Cl)ccc2-c2nc3cc(F)c(F)cc3n2CC2CCCCC2)cc1 [Example 28, {4-[5-Chloro-2-(1-cyclohexylmethyl-5,6-difluoro-1H-benzoimidazol-2-yl)-phenoxymethyl]-phenyl}-acetic acid] | 200 nM
2 | Fc1cc2nc(-c3ccc(Cl)cc3OCC3CC3)n(Cc3ccccc3)c2cc1F [Example 50, 1-Benzyl-2-(4-chloro-2-cyclopropylmethoxy-phenyl)-5,6-difluoro-1H-benzoimidazole] | 1900 nM
3 | Fc1cc2nc(-c3cccnc3OCc3ccccc3Cl)n(Cc3ccccc3)c2cc1F [Example 6, 1-Benzyl-2-[2-(2-chloro-benzyloxy)-pyridin-3-yl]-5,6-difluoro-1H-benzoimidazole] | 1800 nM
4 | O=C(O)c1ccc(COc2cc(Cl)ccc2-c2nc3cc(F)c(F)cc3n2Cc2cccc(Cl)c2)cc1 [Example 56, 4-{5-Chloro-2-[1-(3-chloro-benzyl)-5,6-difluoro-1H-benzoimidazol-2-yl]-phenoxymethyl}-benzoic acid] | 500 nM
5 | Fc1cc2nc(-c3ccc(Cl)cc3OCC3CCCCC3)n(CC3CCCCC3)c2cc1F [Example 22, 2-(4-Chloro-2-cyclohexylmethoxy-phenyl)-1-cyclohexylmethyl-5,6-difluoro-1H-benzoimidazole] | 200 nM
6 | Fc1cc2nc(-c3cccnc3OCC3CCCC3)n(Cc3cccc(Cl)c3)c2cc1F [Example 12, 1-(3-Chloro-benzyl)-2-(2-cyclopentylmethoxy-pyridin-3-yl)-5,6-difluoro-1H-benzoimidazole] | 1500 nM
7 | Fc1cc2nc(-c3ccc(Cl)cc3OC3CCCCC3)n(Cc3ccc(-c4nnn[nH]4)cc3F)c2cc1F [Example 96, 2-(4-Chloro-2-cyclohexyloxy-phenyl)-5,6-difluoro-1-[2-fluoro-4-(1H-tetrazol-5-yl)-benzyl]-1H-benzoimidazole] | 20 nM
8 | O=C(O)CCCCCn1c(-c2ccc(Cl)cc2OCC2CCCC2)nc2cc(F)c(F)cc21 [Example 65, 6-[2-(4-Chloro-2-cyclopentylmethoxy-phenyl)-5,6-difluoro-benzoimidazol-1-yl]-hexanoic acid] | 3700 nM
9 | Fc1cc2nc(-c3ccc(Cl)cc3OCC3CCCC3)n(Cc3ccccc3)c2cc1F [Example 49, 1-Benzyl-2-(4-chloro-2-cyclopentylmethoxy-phenyl)-5,6-difluoro-1H-benzoimidazole] | 1100 nM
10 | Fc1cc2nc(-c3ccc(Cl)cc3OCc3ccccc3Cl)n(Cc3cccc(Cl)c3)c2cc1F [Example 53, 1-(3-Chloro-benzyl)-2-[4-chloro-2-(2-chloro-benzyloxy)-phenyl]-5,6-difluoro-1H-benzoimidazole] | 1700 nM
11 | O=C(O)CCc1ccc(Cn2c(-c3cccnc3OCc3ccccc3Cl)nc3cc(F)c(F)cc32)cc1 [Example 17, 3-(4-{2-[2-(2-Chloro-benzyloxy)-pyridin-3-yl]-5,6-difluoro-benzoimidazol-1-ylmethyl}-phenyl)-propionic acid] | 10200 nM
12 | Fc1cc2nc(-c3ccc(Cl)cc3OCC3CCCCO3)n(Cc3ccc(-c4nnn[nH]4)cc3F)c2cc1F (centres unmarked) [Example 93, 2-[4-Chloro-2-(tetrahydro-pyran-2-ylmethoxy)-phenyl]-5,6-difluoro-1-[2-fluoro-4-(1H-tetrazol-5-yl)-benzyl]-1H-benzoimidazole] | 60 nM
13 | O=C(O)c1cccc(Cn2c(-c3ccc(Cl)cc3OCC3CCCC3)nc3cc(F)c(F)cc32)c1 [Example 61, 3-[2-(4-Chloro-2-cyclopentylmethoxy-phenyl)-5,6-difluoro-benzoimidazol-1-ylmethyl]-benzoic acid] | 500 nM
14 | O=C(O)c1ccc(COc2ncccc2-c2nc3cc(F)c(F)cc3n2Cc2ccccc2)cc1 [Example 9, 4-[3-(1-Benzyl-5,6-difluoro-1H-benzoimidazol-2-yl)-pyridin-2-yloxymethyl]-benzoic acid] | 10500 nM
15 | CC(C)(C)Cn1c(-c2ccc(Cl)cc2OCc2ccc(-c3nnn[nH]3)cc2F)nc2cc(F)c(F)cc21 [Example 46, 2-{4-Chloro-2-[2-fluoro-4-(1H-tetrazol-5-yl)-benzyloxy]-phenyl}-1-(2,2-dimethyl-propyl)-5,6-difluoro-1H-benzoimidazole] | 400 nM

More lines, now with the values ahead:

Row | IC50 | SMILES
16 | 30 nM | Fc1cc(-c2nnn[nH]2)ccc1COc1cc(Cl)ccc1-c1nc2ccccc2n1CC1CCCCC1 [Example 39, 2-{4-Chloro-2-[2-fluoro-4-(1H-tetrazol-5-yl)-benzyloxy]-phenyl}-1-cyclohexylmethyl-1H-benzoimidazole]
17 | 30 nM | Fc1cc2nc(-c3ccccc3OCc3ccc(-c4nnn[nH]4)cc3F)n(CC3CCCCC3)c2cc1F [Example 34, 1-Cyclohexylmethyl-5,6-difluoro-2-{2-[2-fluoro-4-(1H-tetrazol-5-yl)-benzyloxy]-phenyl}-1H-benzoimidazole]
18 | 10 nM | Fc1cc(-c2nnn[nH]2)ccc1Cn1c(-c2ccc(Cl)cc2OCC2CCCC2)nc2ccccc21 [Example 95, 2-(4-Chloro-2-cyclopentylmethoxy-phenyl)-1-[2-fluoro-4-(1H-tetrazol-5-yl)-benzyl]-1H-benzoimidazole]
19 | 3600 nM | Fc1cc2nc(-c3ccc(Cl)cc3C#Cc3ccc(-c4nnn[nH]4)cc3)n(CC3CCCCC3)c2cc1F [Example 72, 2-{4-Chloro-2-[4-(1H-tetrazol-5-yl)-phenylethynyl]-phenyl}-1-cyclohexylmethyl-5,6-difluoro-1H-benzoimidazole]
20 | 100 nM | Fc1cc2nc(-c3ccccc3CCc3ccc(-c4nnn[nH]4)cc3)n(CC3CCCCC3)c2cc1F [Example 76, 1-Cyclohexylmethyl-5,6-difluoro-2-(2-{2-[4-(1H-tetrazol-5-yl)-phenyl]-ethyl}-phenyl)-1H-benzoimidazole]
21 | 10 nM | Fc1cc2nc(-c3ccc(Cl)cc3OCc3ccc(-c4nnn[nH]4)cc3F)n(CC3CCCCC3)c2cc1F [Example 32, 2-{4-Chloro-2-[2-fluoro-4-(1H-tetrazol-5-yl)-benzyloxy]-phenyl}-1-cyclohexylmethyl-5,6-difluoro-1H-benzoimidazole]
22 | 20 nM | Fc1cc2nc(-c3ccc(Cl)cc3OCC3CCCCC3)n(Cc3ccc(-c4nnn[nH]4)cc3F)c2cc1F [Example 87, 2-(4-Chloro-2-cyclohexylmethoxy-phenyl)-5,6-difluoro-1-[2-fluoro-4-(1H-tetrazol-5-yl)-benzyl]-1H-benzoimidazole]
23 | 1600 nM | Fc1cc2nc(-c3ccc(Cl)cc3OCC3CCOCC3)n(Cc3ccc(-c4nnn[nH]4)cc3F)c2cc1F [Example 90, 2-[4-Chloro-2-(tetrahydro-pyran-4-ylmethoxy)-phenyl]-5,6-difluoro-1-[2-fluoro-4-(1H-tetrazol-5-yl)-benzyl]-1H-benzoimidazole]
24 | 90 nM | Fc1cc2nc(-c3ccc(Cl)cc3OCC3CCCC3)n(Cc3cccc(-c4nnn[nH]4)c3)c2cc1F [Example 67, 2-(4-Chloro-2-cyclopentylmethoxy-phenyl)-5,6-difluoro-1-[3-(1H-tetrazol-5-yl)-benzyl]-1H-benzoimidazole]
25 | 5600 nM | Fc1cc2nc(-c3cccnc3OCC3CC3)n(Cc3ccccc3)c2cc1F [Example 8, 1-Benzyl-2-(2-cyclopropylmethoxy-pyridin-3-yl)-5,6-difluoro-1H-benzoimidazole]
26 | 30 nM | c1ccc(-c2nc3ccccc3n2CC2CCCCC2)c(CCc2ccc(-c3nnn[nH]3)cc2)c1 [Example 80, 1-Cyclohexylmethyl-2-(2-{2-[4-(1H-tetrazol-5-yl)-phenyl]-ethyl}-phenyl)-1H-benzoimidazole]
27 | 10 nM | Fc1cc2nc(-c3ccc(Cl)cc3CCc3ccc(-c4nnn[nH]4)cc3)n(CC3CCCCC3)c2cc1F [Example 73, 2-(4-Chloro-2-{2-[4-(1H-tetrazol-5-yl)-phenyl]-ethyl}-phenyl)-1-cyclohexylmethyl-5,6-difluoro-1H-benzoimidazole]
28 | 80 nM | O=C(O)COc1ccc(CCc2ccccc2-c2nc3ccccc3n2CC2CCCCC2)cc1 [Example 79, (4-{2-[2-(1-Cyclohexylmethyl-1H-benzoimidazol-2-yl)-phenyl]-ethyl}-phenoxy)-acetic acid]
29 | 10 nM | CC1CCC(Cn2c(-c3ccccc3CCc3ccc(-c4nnn[nH]4)cc3)nc3ccccc32)CC1 (centres unmarked) [Example 82, 1-(4-Methyl-cyclohexylmethyl)-2-(2-{2-[4-(1H-tetrazol-5-yl)-phenyl]-ethyl}-phenyl)-1H-benzoimidazole]
